The source of these data is patent US10519154B2, “7-substituted 1-pyridyl-naphthyridine-3-carboxylic acid amides and use thereof” (Bayer Pharma Aktiengesellschaft, priority 2016, dated 2019).

For this assay, the target named is T1, human M2 receptor (Homo sapiens, UniProt P08172).
T1 sequence (P08172 1-466): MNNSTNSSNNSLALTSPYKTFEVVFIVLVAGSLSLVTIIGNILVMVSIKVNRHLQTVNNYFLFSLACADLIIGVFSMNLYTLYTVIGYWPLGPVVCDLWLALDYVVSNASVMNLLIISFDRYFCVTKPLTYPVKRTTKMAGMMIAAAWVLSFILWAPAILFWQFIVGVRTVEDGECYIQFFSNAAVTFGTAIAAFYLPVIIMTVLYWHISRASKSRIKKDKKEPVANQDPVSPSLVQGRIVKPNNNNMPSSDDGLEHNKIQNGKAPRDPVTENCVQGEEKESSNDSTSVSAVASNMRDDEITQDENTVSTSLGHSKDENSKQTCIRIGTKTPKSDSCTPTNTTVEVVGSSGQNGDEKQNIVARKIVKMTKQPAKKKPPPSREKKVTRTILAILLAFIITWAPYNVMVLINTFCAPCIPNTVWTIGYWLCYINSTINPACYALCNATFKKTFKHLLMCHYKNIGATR
Briefly: Functional M2-GIRK1/4 activation test: allosteric potency (EC50) and efficiency. The conditions noted are these: for EC50: Receptor activity EC50, CHO-DUKX-M2-GIRK cells, acetylcholine at EC20, in some cases mean of two or more determinations; for Emax: read-out: Efficiency, boosting of the acetylcholine effect at EC20 acetylcholine concentration, CHO-DUKX-M2-GIRK cells.

In the case of `O=C(NC(c1ccc(F)cc1)C(F)(F)F)c1cn(-c2ncc(F)cc2F)c2nc(N3C[C@@H](O)CC3=O)ccc2c1=O` (mixture of isomers) [Example 11, 1-(3,5-Difluoropyridin-2-yl)-7-[(4S)-4-hydroxy-2-oxopyrrolidin-1-yl]-4-oxo-N-[2,2,2-trifluoro-1-(4-fluorophenyl)ethyl]-1,4-dihydro-1,8-naphthyridine-3-carboxamide], the EC50 was determined as 37 nM and the Emax was found to be 99.5%.

As to `O=C(N[C@H](C1CC1)C(F)(F)F)c1cn(-c2ncc(F)cc2F)c2nc(N3CC4CC4(O)C3)ccc2c1=O` (mixture of isomers) [Example 37, N-[(1R)-1-Cyclopropyl-2,2,2-trifluoroethyl]-1-(3,5-difluoropyridin-2-yl)-7-[1-hydroxy-3-azabicyclo[3.1.0]hex-3-yl]-4-oxo-1,4-dihydro-1,8-naphthyridine-3-carboxamide], the midpoint of the response, the EC50, lay at 21 nM and the Emax came to 99%.

Turning to `CC[C@@H](NC(=O)c1cn(-c2ncc(F)cc2F)c2nc(N3CC4CC4(O)C3)ccc2c1=O)C(F)(F)F` (mixture of isomers) [Example 43, 1-(3,5-Difluoropyridin-2-yl)-7-[1-hydroxy-3-azabicyclo[3.1.0]hex-3-yl]-4-oxo-N-[(2R)-1,1,1-trifluorobutan-2-yl]-1,4-dihydro-1,8-naphthyridine-3-carboxamide], the midpoint of the response, the EC50, lay at 65 nM and the Emax amounted to 100%.

In the case of `CC[C@@H](NC(=O)c1cn(-c2ncc(F)cc2F)c2nc(N3CCC(C)(O)C3)ccc2c1=O)C(F)(F)F` (mixture of isomers) [Example 46, 1-(3,5-Difluoropyridin-2-yl)-7-[3-hydroxy-3-methylpyrrolidin-1-yl]-4-oxo-N-[(2R)-1,1,1-trifluorobutan-2-yl]-1,4-dihydro-1,8-naphthyridine-3-carboxamide], the half-maximal effective concentration (EC50) is 385 nM and the Emax amounted to 97%.

Consider `CC[C@@H](NC(=O)c1cn(-c2ncccc2Cl)c2nc(N3CC4CC4(O)C3)ccc2c1=O)C(F)(F)F` (mixture of isomers) [Example 47, 1-(3-Chloropyridin-2-yl)-7-[1-hydroxy-3-azabicyclo[3.1.0]hex-3-yl]-4-oxo-N-[(2R)-1,1,1-trifluorobutan-2-yl]-1,4-dihydro-1,8-naphthyridine-3-carboxamide], for which the EC50 came to 640 nM and the Emax was determined as 89%.

On to `CC[C@@H](NC(=O)c1cn(-c2ncc(F)cc2Cl)c2nc(N3CC4CC4(O)C3)ccc2c1=O)C(F)(F)F` (mixture of isomers) [Example 48, 1-(3-Chloro-5-fluoropyridin-2-yl)-7-[1-hydroxy-3-azabicyclo[3.1.0]hex-3-yl]-4-oxo-N-[(2R)-1,1,1-trifluorobutan-2-yl]-1,4-dihydro-1,8-naphthyridine-3-carboxamide], for which the EC50 is 74 nM and the Emax stood at 92.5%.

As to `CC[C@@H](NC(=O)c1cn(-c2ncc(F)cc2Cl)c2nc(N3CCC(C)(O)C3)ccc2c1=O)C(F)(F)F` (mixture of isomers) [Example 49, 1-(3-Chloro-5-fluoropyridin-2-yl)-7-[3-hydroxy-3-methylpyrrolidin-1-yl]-4-oxo-N-[(2R)-1,1,1-trifluorobutan-2-yl]-1,4-dihydro-1,8-naphthyridine-3-carboxamide], a half-maximal response (EC50) required 560 nM and the Emax was 97%.

With `O=C(N[C@H](C1CC1)C(F)(F)F)c1cn(-c2ncc(F)cc2Cl)c2nc(N3CC4CC4(O)C3)ccc2c1=O` (mixture of isomers) [Example 52, 1-(3-Chloro-5-fluoropyridin-2-yl)-N-[(1R)-1-cyclopropyl-2,2,2-trifluoroethyl]-7-[1-hydroxy-3-azabicyclo[3.1.0]hex-3-yl]-4-oxo-1,4-dihydro-1,8-naphthyridine-3-carboxamide], the EC50 was found to be 48 nM and the Emax is 90.5%.

In the case of `CC1(O)CCN(c2ccc3c(=O)c(C(=O)N[C@H](C4CC4)C(F)(F)F)cn(-c4ncc(F)cc4Cl)c3n2)C1` (mixture of isomers) [Example 53, 1-(3-Chloro-5-fluoropyridin-2-yl)-N-[(1R)-1-cyclopropyl-2,2,2-trifluoroethyl]-7-[3-hydroxy-3-methylpyrrolidin-1-yl]-4-oxo-1,4-dihydro-1,8-naphthyridine-3-carboxamide], the midpoint of the response, the EC50, lay at 555 nM and the Emax is 96.5%.

`O=C(N[C@H](C1CC1)C(F)(F)F)c1cn(-c2ncccc2Cl)c2nc(N3CC4CC4(O)C3)ccc2c1=O` (mixture of isomers) [Example 54, 1-(3-Chloropyridin-2-yl)-N-[(1R)-1-cyclopropyl-2,2,2-trifluoroethyl]-7-[1-hydroxy-3-azabicyclo[3.1.0]hex-3-yl]-4-oxo-1,4-dihydro-1,8-naphthyridine-3-carboxamide]: the EC50 is 350 nM and the Emax turned out to be 94.7%.

`O=C(NC(C(F)(F)F)C(F)(F)F)c1cn(-c2ncc(F)cc2F)c2nc(N3CC4CC4(O)C3)ccc2c1=O` (racemic) [Example 57, 1-(3,5-Difluoropyridin-2-yl)-N-(1,1,1,3,3,3-hexafluoropropan-2-yl)-7-[1-hydroxy-3-azabicyclo[3.1.0]hex-3-yl]-4-oxo-1,4-dihydro-1,8-naphthyridine-3-carboxamide]: the EC50 came to 10 nM and the Emax came to 94%.

In the case of `CC1(O)CCN(c2ccc3c(=O)c(C(=O)Nc4c(Cl)cccc4Cl)cn(-c4ncc(F)cc4F)c3n2)C1` (racemic) [Example 69, N-(2,6-Dichlorophenyl)-1-(3,5-difluoropyridin-2-yl)-7-[3-hydroxy-3-methylpyrrolidin-1-yl]-4-oxo-1,4-dihydro-1,8-naphthyridine-3-carboxamide], the EC50 came to 365 nM and the Emax is 92%.

As for `CC(NC(=O)c1cn(-c2ncc(F)cc2F)c2nc(N3C[C@@H](O)CC3=O)ccc2c1=O)C(F)(F)C(F)(F)F` (mixture of isomers) [Example 76, 1-(3,5-Difluoropyridin-2-yl)-7-[(4S)-4-hydroxy-2-oxopyrrolidin-1-yl]-4-oxo-N-[3,3,4,4,4-pentafluorobutan-2-yl]-1,4-dihydro-1,8-naphthyridine-3-carboxamide], the midpoint of the response, the EC50, lay at 35 nM and the Emax came to 94%.

With `O=C(NC(c1ccccc1Cl)C(F)(F)F)c1cn(-c2ncc(F)cc2F)c2nc(N3C[C@@H](O)[C@H](O)C3)ccc2c1=O` (mixture of isomers) [Example 83, N-[1-(2-Chlorophenyl)-2,2,2-trifluoroethyl]-1-(3,5-difluoropyridin-2-yl)-7-[(3R,4R)-3,4-dihydroxypyrrolidin-1-yl]-4-oxo-1,4-dihydro-1,8-naphthyridine-3-carboxamide], a half-maximal effect (EC50) was put at 17 nM and the Emax came out at 100%.

Turning to `CC(NC(=O)c1cn(-c2ncc(F)cc2F)c2nc(N3C[C@@H](O)[C@H](O)C3)ccc2c1=O)C(F)(F)C(F)(F)F` (mixture of isomers) [Example 88, 1-(3,5-Difluoropyridin-2-yl)-7-[(3R,4R)-3,4-dihydroxypyrrolidin-1-yl]-4-oxo-N-[3,3,4,4,4-pentafluorobutan-2-yl]-1,4-dihydro-1,8-naphthyridine-3-carboxamide], the EC50 came to 59 nM and the Emax was 99.5%.

With `CCC(NC(=O)c1cn(-c2ncc(F)cc2F)c2nc(N3C[C@@H](O)CC3=O)ccc2c1=O)C(F)(F)C(F)(F)F` (mixture of isomers) [Example 92, 1-(3,5-Difluoropyridin-2-yl)-7-[(4S)-4-hydroxy-2-oxopyrrolidin-1-yl]-4-oxo-N-[1,1,1,2,2-pentafluoropentan-3-yl]-1,4-dihydro-1,8-naphthyridine-3-carboxamide], the EC50 came to 17 nM and the Emax was 100%.

In the case of `CCC(NC(=O)c1cn(-c2ncc(F)cc2F)c2nc(N3C[C@@H](O)[C@H](O)C3)ccc2c1=O)C(F)(F)C(F)(F)F` (mixture of isomers) [Example 95, 1-(3,5-Difluoropyridin-2-yl)-7-[(3R,4R)-3,4-dihydroxypyrrolidin-1-yl]-4-oxo-N-[1,1,1,2,2-pentafluoropentan-3-yl]-1,4-dihydro-1,8-naphthyridine-3-carboxamide], the EC50 stood at 26 nM and the Emax came to 100%.

In the case of `CC1C(=O)N(c2ccc3c(=O)c(C(=O)N[C@@H](C4CC4)C(F)(F)F)cn(-c4ncc(F)cc4F)c3n2)CC1O` (mixture of isomers) [Example 104, N-[(1S)-1-Cyclopropyl-2,2,2-trifluoroethyl]-1-(3,5-difluoropyridin-2-yl)-7-[4-hydroxy-3-methyl-2-oxopyrrolidin-1-yl]-4-oxo-1,4-dihydro-1,8-naphthyridine-3-carboxamide], a half-maximal response (EC50) required 250 nM and the Emax turned out to be 98.5%.

Consider `CC[C@H](NC(=O)c1cn(-c2ncc(F)cc2F)c2nc(N3CC(O)C(C)C3=O)ccc2c1=O)C(F)(F)F` (mixture of isomers) [Example 108, 1-(3,5-Difluoropyridin-2-yl)-7-[4-hydroxy-3-methyl-2-oxopyrrolidin-1-yl]-4-oxo-N-[(2S)-1,1,1-trifluorobutan-2-yl]-1,4-dihydro-1,8-naphthyridine-3-carboxamide], for which the EC50 came out at 185 nM and the Emax was determined as 84%.

Regarding `CC1C(=O)N(c2ccc3c(=O)c(C(=O)N[C@@H](C)C(F)(F)F)cn(-c4ncc(F)cc4F)c3n2)CC1O` (mixture of isomers) [Example 112, 1-(3,5-Difluoropyridin-2-yl)-7-[4-hydroxy-3-methyl-2-oxopyrrolidin-1-yl]-4-oxo-N-[(2S)-1,1,1-trifluoropropan-2-yl]-1,4-dihydro-1,8-naphthyridine-3-carboxamide], the EC50 stood at 525 nM and the Emax stood at 98%.

Usually EC50 stands for the midpoint of the concentration-response curve. A low value points to a more potent agent.
